For one compound, IC50 results are on record in ChEMBL document CHEMBL1156532, “Model structure of the Na+/H+ exchanger 1 (NHE1): functional and clinical implications” (J Biol Chem, 2007).

Assay [1] concerns the target Na(+)/H(+) antiporter NhaA (Escherichia coli K-12, UniProt P13738, H225Q). In words: Antiporter activity in Escherichia coli K12 wild type EcNhaA H225Q mutant assessed as effect on sodium chloride-induced pH changes by acridine orange fluorescence assay.
Assay [2] concerns the target T1, Na(+)/H(+) antiporter NhaA (Escherichia coli K-12, UniProt P13738, H225R). Description: Antiporter activity in Escherichia coli K12 wild type EcNhaA H225R mutant assessed as effect on lithium chloride-induced pH changes by acridine orange fluorescence assay.
In assay [3] the target is T1, Na(+)/H(+) antiporter NhaA. In words: Antiporter activity in Escherichia coli K12 wild type EcNhaA H225R mutant assessed as effect on sodium chloride-induced pH changes by acridine orange fluorescence assay.
Assay [4] in a line: Antiporter activity in Escherichia coli K12 wild type EcNhaA N64C mutant assessed as effect on lithium chloride-induced pH changes by acridine orange fluorescence assay.
Assay [5] can be described thus: Antiporter activity in Escherichia coli K12 wild type EcNhaA G76C mutant assessed as effect on lithium chloride-induced pH changes by acridine orange fluorescence assay.
The nature of assay [6]: Antiporter activity in Escherichia coli K12 wild type EcNhaA G76C mutant assessed as effect on sodium chloride-induced pH changes by acridine orange fluorescence assay.
The nature of assay [7]: Antiporter activity in Escherichia coli K12 wild type EcNhaA F72C mutant assessed as effect on lithium chloride-induced pH changes by acridine orange fluorescence assay.
Assay [8] can be described thus: Antiporter activity in Escherichia coli K12 wild type EcNhaA F72C mutant assessed as effect on sodium chloride-induced pH changes by acridine orange fluorescence assay.
Assay [9] addresses Na(+)/H(+) antiporter NhaA (Escherichia coli K-12, UniProt P13738, F71C). In words: Antiporter activity in Escherichia coli K12 wild type EcNhaA F71C mutant assessed as effect on lithium chloride-induced pH changes by acridine orange fluorescence assay.
Assay [10] can be described thus: Antiporter activity in Escherichia coli K12 wild type EcNhaA W62C mutant assessed as effect on lithium chloride-induced pH changes by acridine orange fluorescence assay.
For assay [11], the target named is Na(+)/H(+) antiporter NhaA (Escherichia coli K-12, UniProt P13738, W62C). Description: Antiporter activity in Escherichia coli K12 wild type EcNhaA W62C mutant assessed as effect on sodium chloride-induced pH changes by acridine orange fluorescence assay.
Sequence of Na(+)/H(+) antiporter NhaA (Escherichia coli K-12, UniProt P13738, W62C) (P13738 whole entry W62C): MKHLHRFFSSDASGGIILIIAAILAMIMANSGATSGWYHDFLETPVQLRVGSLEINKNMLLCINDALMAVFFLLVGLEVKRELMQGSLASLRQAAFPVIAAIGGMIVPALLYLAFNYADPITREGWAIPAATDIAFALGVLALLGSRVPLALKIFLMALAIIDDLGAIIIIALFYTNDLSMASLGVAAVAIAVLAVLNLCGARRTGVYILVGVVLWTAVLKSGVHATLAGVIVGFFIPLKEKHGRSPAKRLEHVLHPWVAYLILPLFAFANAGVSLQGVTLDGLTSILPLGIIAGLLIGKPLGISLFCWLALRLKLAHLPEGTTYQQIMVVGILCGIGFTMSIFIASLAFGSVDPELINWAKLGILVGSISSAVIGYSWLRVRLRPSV
Assay [12] concerns the target T2, Na(+)/H(+) antiporter NhaA (Escherichia coli K-12, UniProt P13738).
T2 sequence (P13738 whole entry): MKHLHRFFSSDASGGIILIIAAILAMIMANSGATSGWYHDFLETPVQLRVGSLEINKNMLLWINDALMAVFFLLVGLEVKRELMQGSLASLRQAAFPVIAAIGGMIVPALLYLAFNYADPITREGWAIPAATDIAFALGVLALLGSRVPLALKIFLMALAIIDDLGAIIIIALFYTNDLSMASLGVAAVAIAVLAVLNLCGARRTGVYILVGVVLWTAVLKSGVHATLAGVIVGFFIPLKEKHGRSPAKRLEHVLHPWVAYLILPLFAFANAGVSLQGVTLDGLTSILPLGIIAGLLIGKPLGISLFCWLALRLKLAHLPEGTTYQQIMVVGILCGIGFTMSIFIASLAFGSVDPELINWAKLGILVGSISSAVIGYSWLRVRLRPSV
In words: Antiporter activity in Escherichia coli K12 wild type EcNhaA assessed as effect on lithium chloride-induced pH changes by acridine orange fluorescence assay.

For assay [13], the target named is T2, Na(+)/H(+) antiporter NhaA. Description: Antiporter activity in Escherichia coli K12 wild type EcNhaA assessed as effect on sodium chloride-induced pH changes by acridine orange fluorescence assay.
Assay [14] is described as follows: Antiporter activity in Escherichia coli K12 wild type EcNhaA H225Q mutant assessed as effect on lithium chloride-induced pH changes by acridine orange fluorescence assay.
Assay [15] can be described thus: Antiporter activity in Escherichia coli K12 wild type EcNhaA N64C mutant assessed as effect on sodium chloride-induced pH changes by acridine orange fluorescence assay.
Assay [16] is described as follows: Antiporter activity in Escherichia coli K12 wild type EcNhaA F71C mutant assessed as effect on sodium chloride-induced pH changes by acridine orange fluorescence assay.

T1 sequence (P13738 whole entry H225R): as the sequence (P13738 whole entry W62C) above, with C62W, H225R counted along it
Sequence of Na(+)/H(+) antiporter NhaA (Escherichia coli K-12, UniProt P13738, H225Q) (P13738 whole entry H225Q): as the sequence (P13738 whole entry W62C) above, with C62W, H225Q counted along it
Sequence of Na(+)/H(+) antiporter NhaA (Escherichia coli K-12, UniProt P13738, F71C) (P13738 whole entry F71C): as the sequence (P13738 whole entry W62C) above, with C62W, F71C counted along it

What is called IC50 is the point on the concentration scale where inhibition reaches its midpoint. Consider `NC1=Nc2cccc3cccc(c23)N1`, for which the IC50 in [1] came to 800 nM; in [2], 2300 nM; in assay [3], 1000 nM; in [4], 17000 nM; in [5], 1200 nM; in [6] it was 1600 nM. Moreover, the IC50 in [7] stood at 2600 nM; in [8], 1800 nM; in assay [9], 800 nM; in assay [10], 1500 nM; in assay [11] it was 1200 nM; in assay [12], 2200 nM. In addition, the IC50 in assay [13] came to 1700 nM; in assay [14] it was 7800 nM; in [15] it was 500 nM; in assay [16], 300 nM.
